Results from patent US20250368624A1, “M24B AMINOPEPTIDASE INHIBITORS FOR CARD8 INFLAMMASOME ACTIVATION” (Memorial Sloan-Kettering Cancer Center, priority 2022, published 2025).

Tests used:
OCI-AML2 cells = assay: CellTiter-Glo cell viability, OCI-AML2 cells (WT, CARD8-/-); format: cell-based; conditions: OCI-AML2 WT vs CARD8-/-, 24 h, CTG
Protocol: (§1) CellTiter-Glo cell viability and CytoTox-Fluor cell death assays. Cells were plated (2,000 cells per well) in white, 384-well clear-bottom plates (Corning) using an EL406 Microplate Washer/Dispenser (BioTek) in 25 μL final volume of medium. To the cell plates were added compounds at different concentrations using a pintool (CyBio) and the plates were allowed to incubate in the incubator. After incubation for indicated times, CytoTox-Fluor reagent (Promega, G9262) was added according to the manufacturer's protocol. The assay plates were then incubated for another 30 min before fluorescence was recorded using a Cytation 5 Cell Imaging Multi-Mode Reader (BioTek). Next, CellTiter-Glo reagent (Promega, G7573) was subsequently added to the assay plates following the manufacturer's protocol. Assay plates were shaken on an orbital shaker for 2 min and incubated at 25° C. for 10 min. Luminescence was then read using a Cytation 5 Cell Imaging Multi-Mode Reader (BioTek).

MV4;11 cells = assay: Propidium iodide uptake, MV4;11 cells (WT, CASP1-/-, CARD8-/-); format: cell-based; conditions: MV4;11 WT vs CASP1-/- or CARD8-/-, 6.25 μM
Protocol: Propidium iodideflux analysis. 2×10^4 MV4;11 or OCI-AML2 cells were plated in 384-well, black, clear-bottom plate (Corning) in RPMI medium. Cells were then treated as indicated and propidium iodide (PI) was added at a final concentration of 10 μM. PI fluorescence was measured at (Ex/Em: 535/617 nm) recorded at 37° C. every 5 mins in a Cytation 5 Cell Imaging Multi-Mode Reader (BioTek). The obtained measurements were baseline corrected to vehicle/DMSO and normalized to maximum response.

MV4;11 WT cells = assay: CellTiter-Glo cell viability, WT MV4;11 cells; format: cell-based; conditions: Homo sapiens, MV4-11; 24 h, CTG
Protocol: as §1

[1] = Stability in cell culture supernatants; format: in vitro ADME; conditions: cell culture supernatants
[2] = test system: primary bone marrow-derived macrophages (BMDMs) and mouse RAW264.7 cells; assay: LDH release and GSDMD cleavage in BMDMs and RAW264.7 cells (mouse NLRP1); format: cell-based; conditions: VbP 10 μM, CQ31/CQ80 20 μM, 24 h
Protocol: Mouse BMDM isolation and culture. Bone marrow was harvested from the femurs and tibias of 7-12-week-old C57BL/6J mice. Briefly, femurs and tibias were harvested from mice and crushed with a mortar and pestle in cold 1×PBS supplemented with 2.5% FBS. The mixture was passed through a 70-μm nylon cell strainer. RBCs were lysed for 4-5 min on ice in 1×RBC lysis buffer (Biolegend) and cells were centrifuged at 300×g for 5 min at 4° C. The cell pellet was washed in cold 1×PBS supplemented with 2.5% FBS before being passed again through in a 70-μm nylon cell strainer and counted. Counted cells were plated on non-tissue culture 10-cm plates at 5-10×10^6 cells per plate in DMEM supplemented with 10% FBS and 15-20% L-cell media. Cells were incubated at 37° C. for 6 days before replating and assaying as indicated.
(§2) LDH cytotoxicity and immunoblotting assays. HEK293T cells were transiently transfected and treated with inhibitors as indicated. MV4;11, OCI AML2, THP-1, and RAW264.7 cells were plated in 12-well culture plates at 5×10^5 cells/well and treated as indicated. Supernatants were analyzed for LDH activity using the Pierce LDH Cytotoxicity Assay Kit (Life Technologies). LDH activity was quantified relative to a lysis control where cells were lysed in 80 μL of a 9% Triton X-100 solution. For immunoblotting, cells were washed 2× in PBS (pH=7.4), resuspended in PBS, and lysed by sonication. Protein concentrations were determined and normalized using the DCA Protein Assay kit (Bio-Rad). The samples were separated by SDS-PAGE, immunoblotted, and visualized using the Odyssey Imaging System (Li-Cor).

MV4;11 CASP1-/- cells = assay: CellTiter-Glo cell viability, CASP1-/- MV4;11 cells; format: cell-based; conditions: Homo sapiens, MV4-11; 24 h, CTG
Protocol: Cloning. CASP1^−/− MV4;11 cells^12; CARD8^−/− MV4;11, THP-1, OCI-AML2 cells^14; DPP8/9^−/− THP-1^12; PEPD^−/−, XPNPEP1^−/−, PEPD XPNPEP1^−/− THP-1 cells were generated. Plasmids for CARD8 variants, CASP1, GSDMD, dTAG-CARD8^ZUC were cloned as described previously (Hollingsworth et al., 2021; Johnson et al., 2018; Sharif et al., 2021).
as §1

human resting T cells = assay: GSDMD cleavage in human resting T cells; format: cell-based; conditions: 20 μM, 24 h
Excerpt: Human primary cell isolation and culture. Isolated human primary cells were obtained from Astarte Biologics. All cells were >90% purity, as validated by flow cytometry by Astarte Biologics. T cells were thawed in RPMI-1640 medium supplemented with 10% FBS and cultured in RPMI-1640 medium, 10% fetal bovine serum (FBS), and 30 U/mL IL-2 (Peprotech).
as §2

N/TERT-1 keratinocytes = assay: Cell viability of N/TERT-1 keratinocytes (NLRP1 inflammasome); format: cell-based, human; conditions: VbP 10 μM, CQ compounds 20 μM, 24 h, CTG
Protocol: Cell Culture. HEK293T, THP-1, RAW264.7 cells were purchased from ATCC. MV4;11, OCI-AML2 cells were purchased from DSMZ. N/TERT1 cells were a gift from the Rheinwald Lab (Dickson et al., 2000). HEK293T and RAW264.7 cells were grown in Dulbecco's Modified Eagle's Medium (DMEM) with L-glutamine and 10% fetal bovine serum (FBS). N/TERT1 cells were grown in Keratinocyte serum free medium (KSFM) supplemented with 1× penicillin/streptomycin, bovine pituitary extract (25 μg/ml) and epidermal growth factor (EGF) (0.2 ng/ml). All other cell lines were grown in Roswell Park Memorial Institute (RPMI) medium 1640 with L-glutamine and 10% fetal bovine serum (FBS). All cells were grown at 37° C. in a 5% CO2 atmosphere incubator. Cell lines were regularly tested for mycoplasma using the MycoAlert™ Mycoplasma Detection Kit (Lonza).
as §1

SMILES | cell death (OCI-AML2 cells) | PI uptake (MV4;11 cells) | IC50 (MV4;11 WT cells) | time to conversion to CQ04 [1] | pyroptosis (LDH release and GSDMD cleavage) [2] | IC50 (MV4;11 CASP1-/- cells) | GSDMD cleavage (human resting T cells) | cell death in N/TERT-1 keratinocytes (N/TERT-1 keratinocytes) | remained intact after 24 h ([1]; 24 h)
COC(=O)[C@@H]1CCCN1C(=O)[C@@H](O)[C@H](N)CC(C)C [CQ31] | induced cell death in WT, but not CARD8−/− | induced PI uptake in WT, but not CASP1−/− or CARD8−/− | 3800 nM | ≤ 30 min | only VbP induced pyroptosis | > 100 µM | induced GSDMD cleavage | Only VbP induced cell death | 
COC(=O)[C@H](CC(C)C)NC(=O)[C@@H]1CCCN1C(=O)[C@@H](O)[C@H](N)CC(C)C [CQ80, Methyl ((2S,3R)-3-amino-2-hydroxy-5-methylhexanoyl)-L-prolyl-L-leucinate] | induced cell death in WT, but not CARD8−/− | induced PI uptake in WT, but not CASP1−/− or CARD8−/− | 270 nM |  | only VbP induced pyroptosis | > 20 µM | induced GSDMD cleavage | Only VbP induced cell death | ~50%
